Experimental data reported in US4633014A, “Substituted 3-hydrazinopropionates” (priority 1983, dated 1986).
Structures can show the parent of a compound that is named as a salt.

Legend:
[1] = test system: arrhythmia induced by an intravenous administration of calcium chloride; assay: Antiarrhythmic activity on a model of arrhythmia induced by intravenous calcium chloride (antagonism to calcium) in mice; assay type: in vivo; details: white mice, 20-40 minutes before
Summary of the method: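 Urethane-anaesthetised (1,200 mg/kg i.p.) white mice of both sexes, 18-25 g, with lead II ECG; 2% CaCl2 infused into the tail vein at 0.01 ml per 2 sec. Doses of CaCl2 producing arrhythmia and heart arrest were determined. Test compounds were given i.p. 20-40 min before infusion.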

in vivo = details: mouse, in vivo, ip
Summary of the method: (§1)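 Acute toxicity in white mice of 20-25 g, with compounds given intraperitoneally as aqueous solutions or Twin-80 suspensions. Animals observed for 10 days.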

white mice = assay: in vivo
Summary of the method: as §1

[2] = currently employed in medicine; cited from earlier work
[3] = white mice, intraperitoneal, relative to quinidine

SMILES	Dose of calcium chloride causing arrythmia in animals under experiment ([1]; intraperitoneal dose 5 mg/kg)	Dose of calcium chloride causing death in animals under experiment ([1]; intraperitoneal dose 5 mg/kg)	Dose of calcium chloride causing arrythmia in animals under experiment ([1]; intraperitoneal dose 15 mg/kg)	Dose of calcium chloride causing death in animals under experiment ([1]; intraperitoneal dose 15 mg/kg)	LD50 at 240 h (in vivo) [mg/kg]	Relative toxisity to quinidine (white mice; [3])	Relative toxisity to quinidine (white mice; mouse, in vivo, ip, 14400 min)	acute toxicity (in words, background) [2]	Dose of calcium chloride causing arrythmia in animals under experiment ([1]; intraperitoneal dose 10 mg/kg)	Dose of calcium chloride causing death in animals under experiment ([1]; intraperitoneal dose 10 mg/kg)	Dose of calcium chloride causing arrythmia in animals under experiment ([1]; intraperitoneal dose 30 mg/kg)	Dose of calcium chloride causing death in animals under experiment ([1]; intraperitoneal dose 30 mg/kg)	Dose of calcium chloride causing arrythmia in animals under experiment ([1]; intraperitoneal dose 3 mg/kg)	Dose of calcium chloride causing death in animals under experiment ([1]; intraperitoneal dose 3 mg/kg)
CCC(=O)N(CCC#N)N(C)C [I-62, 3-(2,2-dimethyl-1-propionylhydrazino)-propionitrile]	96,5 mg/kg	120,5 mg/kg	98,7 mg/kg	118,5 mg/kg	930	5,9								
CN(C)N(CCC#N)C(=O)c1ccccc1F [I-63, 3-(2,2-dimethyl-1-2'-fluorobenzoylhydrazino)propionitrile]	101,5 mg/kg	117,3 mg/kg	112,3 mg/kg	128,0 mg/kg	1850		11,8							
CN(C)N(CCC(=O)O)C(=O)Nc1ccccc1 [I-64, Potassium salt of 3-(2,2-dimethyl-1-phenylcarbamoylhydrazino)-methylpropionate]	98 mg/kg	147 mg/kg	141,7 mg/kg	163 mg/kg	1750		11,2							
CCN(CC)CCNC(=O)c1ccc(N)cc1 [Procaineamide, procaine amide, reference compound]					290			high acute toxicity	116,0 mg/kg	120,0 mg/kg	127,0 mg/kg	138,0 mg/kg		
C=C[C@H]1C[N@@]2CC[C@H]1C[C@@H]2[C@@H](O)c1ccnc2ccc(OC)cc12 [Quinidine, quinidine, reference compound]					156	1		high acute toxicity	120,8 mg/kg	133,5 mg/kg			126,9 mg/kg	136,0 mg/kg
